This is an account of results in article PMC7259601 (PLoS ONE, 2020).

The test system of series [1] is isolated Sprague-Dawley rats. As to the kind of experiment: Elevated Plus Maze, rat isolation rearing model. It is filed as in vivo. Conditions: 0.16 or 0.48 mg/kg/day in drinking water, approximately 1 month. The procedure: Sprague Dawley Rats: Right after the weaning (post natal day 21-23), 72 Sprague-Dawley male rats (Charles River, bred in the UAB Animal facility) were divided in two groups: Control (N = 18), maintained 3-4 animals per cage; Isolated (N = 54), 1 animal per cage ([…] 1291H Eurostandard type III with ECOPURE CHIPS 6 bedding material, Harlan). Animals were maintained at 21 ± 2 °C controlled temperature in a 12 hr light / dark cycle (lights on at 8:00 am) with ad libitum access to food (2014 TEKLAD, Harlan) and water. […] Control animals were treated with vehicle. The administration route was drinking water and the vehicle 1.8% 2-Hydroxypropyl-b-cyclodextrin. Drug concentration was adjusted weekly by body weight and water consumption. During the last week of treatment, all animals were tested in the EPM and, on a different day, in the RI test (N = 12 / group). […]
The EPM consisted of four arms at right angles to each other connected to a central square and maintained elevated 50 cm above the floor. […] The animal was placed facing a closed arm, and its movements were video-recorded for 5 min and analyzed by video-tracking using SMART® (v3.0, PanLab, SLU, Spain).
Elevated Plus Maze (EPM): Movements were video-recorded for 5 min and analyzed by video-tracking using SMART® (v3.0, PanLab, SLU, Spain).

The next series has as its target T1, GABA transaminase (Rattus norvegicus, UniProt P50554).
T1 construct: purchased CEREP (Eurofins Cerep)
As to the kind of experiment: CEREP Diversity Panel. It is filed as biochemical. The procedure: (§1) […]. MAO-A inhibition at 10 μM was 37%, in line with internal data.

For the next series, the target named is T2, MAO- A (h) (Homo sapiens, UniProt P21397).
T2 construct: purchased CEREP (Eurofins Cerep)
As to the kind of experiment: CEREP Diversity Panel. It counts as biochemical. Here is the method: as §1

For a further series, the target named is T3, CENP-E (h) (Homo sapiens, UniProt Q02224).
T3 construct: purchased CEREP (Eurofins Cerep)
Kind of series: CEREP Diversity Panel. It is filed as biochemical. The procedure: as §1

The target of a further series is T4, 5-lipoxygenase (h) (Homo sapiens, UniProt P09917).
T4 construct: purchased CEREP (Eurofins Cerep)
As to the kind of experiment: CEREP Diversity Panel. It counts as biochemical. Here is the method:
as §1

For a further series, the target named is T5, acetylcholinesterase (h) (Homo sapiens, UniProt P22303).
T5 construct: purchased CEREP (Eurofins Cerep)
As to the kind of experiment: CEREP Diversity Panel. It counts as biochemical. The procedure:
as §1

For series [2], the target named is T6, PNMT (phenylethanolamine N-methyl transferase) (Bos taurus, UniProt P10938).
T6 construct: purchased CEREP (Eurofins Cerep)
As to the kind of experiment: CEREP Diversity Panel. It is filed as biochemical. Here is the method: as §1

Another series addresses T7, PDE1B (h) (Homo sapiens, UniProt Q01064).
T7 construct: purchased CEREP (Eurofins Cerep)
As to the kind of experiment: CEREP Diversity Panel. It is filed as biochemical. The procedure:
as §1

The target of series [3] is T8, phosphatase 1B (h) (PTP1B) (Homo sapiens, UniProt P18031).
T8 construct: purchased CEREP (Eurofins Cerep)
As to the kind of experiment: CEREP Diversity Panel. It counts as biochemical. The procedure: as §1

In another series the target is T9, PKCa (h) (Homo sapiens, UniProt P17252).
T9 construct: purchased CEREP (Eurofins Cerep)
Kind of series: CEREP Diversity Panel. It counts as biochemical. Here is the method:
as §1

The target in a further series is PDE2A1 (h) (Homo sapiens, UniProt O00408). As to the kind of experiment: CEREP Diversity Panel. It counts as biochemical. The procedure: as §1
For the next series, the target named is T10, tyrosine hydroxylase (Rattus norvegicus, UniProt P04177).
T10 construct: purchased CEREP (Eurofins Cerep)
As to the kind of experiment: CEREP Diversity Panel. It is filed as biochemical. The procedure:
as §1

The target of a further series is T11, Eg5 (h) (Homo sapiens, UniProt P52732).
T11 construct: purchased CEREP (Eurofins Cerep)
As to the kind of experiment: CEREP Diversity Panel. It counts as biochemical. Here is the method: as §1

Another series has as its target T12, phosphatase CDC25A (h) (Homo sapiens, UniProt P30304).
T12 construct: purchased CEREP (Eurofins Cerep)
Kind of series: CEREP Diversity Panel. It is filed as biochemical. Here is the method:
as §1

In a further series the test system is rats. Kind of series: Functional Observation Battery. It counts as in vivo. The settings on record: single dose of up to 100 mg/kg.
Another series relates to SAMP8 mice. Kind of series: Three Chamber Test (TCT). It counts as in vivo, mouse. Conditions: 0.96 mg/kg/day. Here is the method: Both male and female mice from the senescence accelerated strain SAMP8 and its control SAMR1 of different ages (see Table S3 for details) were used in these studies. Mice were breed in the animal facilities of the Pharmacy Faculty (University of Barcelona), maintained in a at 22 ± 2 °C controlled temperature in a 12 hr light / dark cycle (lights on at 8:00 am; 300 lux/0 lux) with ad libitum access to food (2018 TEKLAD, Harlan) and water. Male mice were housed individually (males) or in groups of 4-5 animals (females) in plastic colony boxes with a sawdust bedding material. […] SAMR1 mice treated with vehicle were included as a control. All drugs were administered via drinking water and diluted in vehicle. Drug concentration was calculated weekly in function of body weight and corrected in function of drinking water consumption. Cognitive function was evaluated by NORT, social behavior was evaluated by RI and anxiety and motor function were evaluated by EPM and OF. […]
The test was performed in a Plexiglas transparent box with three identical consecutive chambers (15 x 15 x 20 cm). […] This habituation time was monitored to avoid animals showing preference for one of the chambers. […] The time spent in each chamber and the time of direct exploration of the novel mice was measured.
Three Chamber Test (TCT): Mice were recorded for 5 min during habituation and an additional X min to run the test. […]

The inhibition is the relative decrease from the control value, in per cent.

Molecules are shown by their SMILES. Read-outs that look alike come from different tables or passages of the source.

T2 sequence (P21397 whole entry): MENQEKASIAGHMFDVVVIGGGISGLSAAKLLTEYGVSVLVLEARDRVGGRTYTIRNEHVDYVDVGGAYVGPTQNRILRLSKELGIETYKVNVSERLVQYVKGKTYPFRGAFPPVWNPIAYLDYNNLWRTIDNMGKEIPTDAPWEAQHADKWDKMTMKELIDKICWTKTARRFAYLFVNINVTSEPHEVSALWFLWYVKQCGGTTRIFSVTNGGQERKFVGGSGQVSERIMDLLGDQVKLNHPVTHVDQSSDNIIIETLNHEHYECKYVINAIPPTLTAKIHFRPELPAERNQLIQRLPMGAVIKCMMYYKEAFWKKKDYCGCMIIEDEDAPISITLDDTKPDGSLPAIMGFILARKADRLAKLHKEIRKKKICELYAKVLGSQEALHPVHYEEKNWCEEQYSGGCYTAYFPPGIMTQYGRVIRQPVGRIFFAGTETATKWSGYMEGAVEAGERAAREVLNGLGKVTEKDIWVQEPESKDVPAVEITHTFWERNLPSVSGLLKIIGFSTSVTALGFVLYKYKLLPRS
T12 sequence (P30304 whole entry): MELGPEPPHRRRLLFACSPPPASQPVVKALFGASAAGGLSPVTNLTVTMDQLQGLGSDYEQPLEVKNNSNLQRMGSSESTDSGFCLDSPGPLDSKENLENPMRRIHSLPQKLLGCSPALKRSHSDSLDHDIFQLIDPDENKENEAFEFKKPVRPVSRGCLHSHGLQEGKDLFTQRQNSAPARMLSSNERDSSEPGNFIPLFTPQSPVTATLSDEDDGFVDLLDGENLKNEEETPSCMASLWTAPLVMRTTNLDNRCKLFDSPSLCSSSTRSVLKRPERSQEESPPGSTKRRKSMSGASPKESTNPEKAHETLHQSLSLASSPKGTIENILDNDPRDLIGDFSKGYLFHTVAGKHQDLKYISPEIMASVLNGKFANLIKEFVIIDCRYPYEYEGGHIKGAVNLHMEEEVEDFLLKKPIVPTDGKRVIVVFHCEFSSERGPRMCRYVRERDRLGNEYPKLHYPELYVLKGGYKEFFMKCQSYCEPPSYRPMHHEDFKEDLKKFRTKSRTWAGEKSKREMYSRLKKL
T4 sequence (P09917 whole entry): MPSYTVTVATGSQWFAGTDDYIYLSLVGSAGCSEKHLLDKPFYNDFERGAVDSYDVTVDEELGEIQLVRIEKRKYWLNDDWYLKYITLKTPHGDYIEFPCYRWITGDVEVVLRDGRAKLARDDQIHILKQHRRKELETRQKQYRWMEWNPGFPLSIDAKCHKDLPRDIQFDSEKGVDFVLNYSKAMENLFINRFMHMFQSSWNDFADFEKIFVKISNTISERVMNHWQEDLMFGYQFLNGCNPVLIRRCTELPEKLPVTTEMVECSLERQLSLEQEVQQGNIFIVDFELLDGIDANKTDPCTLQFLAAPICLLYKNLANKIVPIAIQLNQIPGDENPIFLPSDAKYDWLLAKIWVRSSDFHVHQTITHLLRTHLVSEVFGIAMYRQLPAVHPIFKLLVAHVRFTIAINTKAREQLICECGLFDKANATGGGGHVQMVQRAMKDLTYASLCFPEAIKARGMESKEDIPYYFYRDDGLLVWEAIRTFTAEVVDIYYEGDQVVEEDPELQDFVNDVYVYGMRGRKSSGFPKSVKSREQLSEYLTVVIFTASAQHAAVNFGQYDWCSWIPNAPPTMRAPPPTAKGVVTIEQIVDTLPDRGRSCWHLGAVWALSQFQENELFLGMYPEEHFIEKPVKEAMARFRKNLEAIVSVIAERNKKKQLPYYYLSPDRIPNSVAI
T7 sequence (Q01064 whole entry): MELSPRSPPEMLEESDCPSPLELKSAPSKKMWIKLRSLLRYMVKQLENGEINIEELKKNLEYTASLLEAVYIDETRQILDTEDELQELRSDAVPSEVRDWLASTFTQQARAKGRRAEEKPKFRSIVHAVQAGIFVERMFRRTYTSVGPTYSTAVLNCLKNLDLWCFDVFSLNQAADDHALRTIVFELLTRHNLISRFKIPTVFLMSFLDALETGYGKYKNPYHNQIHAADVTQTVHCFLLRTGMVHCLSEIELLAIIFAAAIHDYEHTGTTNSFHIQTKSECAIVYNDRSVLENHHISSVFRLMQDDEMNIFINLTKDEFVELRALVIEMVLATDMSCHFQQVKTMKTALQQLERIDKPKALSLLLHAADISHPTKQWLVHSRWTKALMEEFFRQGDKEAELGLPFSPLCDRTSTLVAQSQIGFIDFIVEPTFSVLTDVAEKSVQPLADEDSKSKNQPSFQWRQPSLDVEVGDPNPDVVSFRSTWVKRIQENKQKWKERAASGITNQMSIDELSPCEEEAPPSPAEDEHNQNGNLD
Chain of PDE2A1 (h) (O00408 49-941 limits assumed): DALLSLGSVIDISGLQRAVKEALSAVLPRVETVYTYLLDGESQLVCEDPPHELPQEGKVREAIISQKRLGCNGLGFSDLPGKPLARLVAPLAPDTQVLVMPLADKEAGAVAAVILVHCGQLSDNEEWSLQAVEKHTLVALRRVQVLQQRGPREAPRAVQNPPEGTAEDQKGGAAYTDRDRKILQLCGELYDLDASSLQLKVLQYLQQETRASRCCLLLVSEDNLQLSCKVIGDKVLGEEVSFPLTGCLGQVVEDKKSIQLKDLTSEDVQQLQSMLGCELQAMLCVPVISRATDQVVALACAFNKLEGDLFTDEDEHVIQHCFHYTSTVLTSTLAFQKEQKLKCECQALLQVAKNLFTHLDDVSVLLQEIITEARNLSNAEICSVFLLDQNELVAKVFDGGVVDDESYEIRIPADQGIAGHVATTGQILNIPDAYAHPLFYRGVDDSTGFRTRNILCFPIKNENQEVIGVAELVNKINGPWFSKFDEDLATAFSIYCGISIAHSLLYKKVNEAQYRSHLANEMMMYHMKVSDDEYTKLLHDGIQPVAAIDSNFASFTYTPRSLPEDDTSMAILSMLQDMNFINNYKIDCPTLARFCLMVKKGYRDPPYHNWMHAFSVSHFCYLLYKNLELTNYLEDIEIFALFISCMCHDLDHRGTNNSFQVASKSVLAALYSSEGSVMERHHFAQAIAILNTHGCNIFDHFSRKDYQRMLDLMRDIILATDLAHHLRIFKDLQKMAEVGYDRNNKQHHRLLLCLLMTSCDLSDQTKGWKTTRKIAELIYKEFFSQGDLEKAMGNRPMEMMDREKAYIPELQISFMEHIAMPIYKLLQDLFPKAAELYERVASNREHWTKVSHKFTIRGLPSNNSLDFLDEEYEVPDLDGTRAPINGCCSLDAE
T1 sequence (P50554 28-500): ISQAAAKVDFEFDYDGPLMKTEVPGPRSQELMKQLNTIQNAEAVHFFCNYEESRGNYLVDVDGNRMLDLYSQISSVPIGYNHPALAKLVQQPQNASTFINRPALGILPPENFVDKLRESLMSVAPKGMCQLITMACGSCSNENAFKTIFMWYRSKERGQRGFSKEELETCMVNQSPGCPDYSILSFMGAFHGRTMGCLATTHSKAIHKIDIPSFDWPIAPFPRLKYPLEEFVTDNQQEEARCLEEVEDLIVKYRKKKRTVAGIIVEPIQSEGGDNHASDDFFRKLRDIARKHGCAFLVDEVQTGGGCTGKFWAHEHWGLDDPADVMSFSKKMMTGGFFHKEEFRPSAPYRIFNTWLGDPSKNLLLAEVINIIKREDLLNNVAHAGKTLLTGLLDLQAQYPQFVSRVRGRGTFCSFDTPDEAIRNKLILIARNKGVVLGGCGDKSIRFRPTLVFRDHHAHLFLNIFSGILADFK
T10 sequence (P04177 whole entry): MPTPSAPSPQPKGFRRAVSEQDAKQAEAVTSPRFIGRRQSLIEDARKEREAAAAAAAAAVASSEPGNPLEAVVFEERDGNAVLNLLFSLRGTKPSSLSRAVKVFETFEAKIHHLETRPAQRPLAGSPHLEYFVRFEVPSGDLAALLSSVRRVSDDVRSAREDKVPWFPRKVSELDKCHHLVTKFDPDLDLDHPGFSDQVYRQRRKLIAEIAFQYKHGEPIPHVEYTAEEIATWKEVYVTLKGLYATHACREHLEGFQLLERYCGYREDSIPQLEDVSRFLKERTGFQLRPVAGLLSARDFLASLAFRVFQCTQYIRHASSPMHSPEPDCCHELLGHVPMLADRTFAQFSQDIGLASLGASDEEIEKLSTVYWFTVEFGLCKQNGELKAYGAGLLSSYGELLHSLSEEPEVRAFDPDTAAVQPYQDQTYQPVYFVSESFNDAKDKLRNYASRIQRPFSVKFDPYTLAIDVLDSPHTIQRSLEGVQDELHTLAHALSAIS
T8 sequence (P18031 whole entry): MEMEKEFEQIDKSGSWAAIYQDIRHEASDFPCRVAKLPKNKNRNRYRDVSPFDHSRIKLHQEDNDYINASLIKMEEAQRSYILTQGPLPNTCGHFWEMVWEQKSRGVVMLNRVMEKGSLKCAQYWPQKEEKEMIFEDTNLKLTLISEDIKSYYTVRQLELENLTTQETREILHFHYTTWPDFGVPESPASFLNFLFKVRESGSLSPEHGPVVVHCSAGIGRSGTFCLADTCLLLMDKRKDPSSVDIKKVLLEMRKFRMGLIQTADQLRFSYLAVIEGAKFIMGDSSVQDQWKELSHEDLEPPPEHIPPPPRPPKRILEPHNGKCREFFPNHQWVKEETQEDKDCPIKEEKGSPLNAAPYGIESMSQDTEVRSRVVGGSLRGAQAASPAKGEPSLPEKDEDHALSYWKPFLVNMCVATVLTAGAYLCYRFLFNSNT
T6 sequence (P10938 whole entry): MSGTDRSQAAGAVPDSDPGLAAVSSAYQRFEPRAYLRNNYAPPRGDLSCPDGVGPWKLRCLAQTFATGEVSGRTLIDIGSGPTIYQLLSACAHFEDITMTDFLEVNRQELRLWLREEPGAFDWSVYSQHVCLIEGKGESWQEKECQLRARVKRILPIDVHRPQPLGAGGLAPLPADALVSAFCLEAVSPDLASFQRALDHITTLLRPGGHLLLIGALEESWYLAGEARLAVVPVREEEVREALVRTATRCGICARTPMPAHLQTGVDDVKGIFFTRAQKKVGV

With `Nc1nnc(CN[C@@H]2C[C@H]2c2ccc(OCc3ccccc3)cc2)o1` [ORY-2001, vafidemstat], the “anxiety and locomotor activity in the EPM” value in series [1] is reported as “did not produce any significant effect on anxiety or locomotor activity”. The inhibition at 10 µM on GABA transaminase is 8%; at MAO- A (h) (10 μM, read-out: MAO-A inhibition), 37%; on MAO- A (h) (at 10 µM, read-out: % inhibition), 37%; against CENP-E (h) it was 3%; against 5-lipoxygenase (h), 3%; at acetylcholinesterase (h), -4%. In addition, the inhibition at 10 µM is 1% in series [2]; 7% on PDE1B (h); 2% in [3]; 4% at PKCa (h); -2% on PDE2A1 (h); -12% at tyrosine hydroxylase. Moreover, the inhibition at 10 µM was -3% against Eg5 (h) and 5% on phosphatase CDC25A (h). In addition, the “neurological alterations in the Functional Observation Battery” value with rats is “did not lead to neurological alterations”. Further, in the series with SAMP8 mice (12 month old female), the “time exploring mice introduced in the cage” value is listed as “restored the time SAMP8 spent exploring mice”. Besides, the “preference for the chamber with the novel mice” value in the series on SAMP8 mice (female) was “restored the normal preference”.
